Assay results: the supplement of paper PMC10307832

Columns and labels:
Experiment in all cases: relative viability (nuclei count vs DMSO), 5 days (fraction); higher = more cells survive
Calu-6 = test system: Calu-6
In short: (§1)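 Lung cancer cell lines in 1536-well plates got either a single drug or a fixed anchor-drug dose together with five library-drug doses (not always all listed) in √10 steps, by pin tool, on the day after seeding. Nuclei were counted after 5 days, and relative viability is the treated-to-vehicle ratio of nuclei counts. Values are medians of duplicate plates.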

EBC-1 = test system: EBC-1
In short: as §1

NCI-H1355 = test system: NCI-H1355
In short: as §1

LCLC-103H = test system: LCLC-103H
In short: as §1

NCI-H1703 = test system: NCI-H1703
In short: as §1

NCI-H1299 = test system: NCI-H1299
In short: as §1

A549 = test system: A549
In short: as §1

IA-LM = test system: IA-LM
In short: as §1

NCI-H520 = test system: NCI-H520
In short: as §1

NC(=O)Nc1cc(-c2cccc(F)c2)sc1C(=O)N[C@H]1CCCNC1 [AZD7762] + CS(=O)(=O)N1CCN(Cc2cc3nc(-c4cccc5[nH]ncc45)nc(N4CCOCC4)c3s2)CC1 [Pictilisib] (partner 1 µM)
relative viability (Calu-6; first compound 0.01 µM): 0.882
relative viability (Calu-6; first compound 0.03162 µM): 0.875
relative viability (Calu-6; first compound 0.1 µM): 0.691
relative viability (Calu-6; first compound 0.3162 µM): 0.17
relative viability (Calu-6; first compound 1 µM): 0.113
relative viability (EBC-1; first compound 0.01 µM): 0.429
relative viability (EBC-1; first compound 0.03162 µM): 0.447
relative viability (EBC-1; first compound 0.1 µM): 0.375
relative viability (EBC-1; first compound 0.3162 µM): 0.28
relative viability (EBC-1; first compound 1 µM): 0.166
relative viability (NCI-H1355; first compound 0.01 µM): 0.405
relative viability (NCI-H1355; first compound 0.03162 µM): 0.428
relative viability (NCI-H1355; first compound 0.1 µM): 0.44
relative viability (NCI-H1355; first compound 0.3162 µM): 0.445
relative viability (NCI-H1355; first compound 1 µM): 0.391
relative viability (LCLC-103H; first compound 0.01 µM): 0.659
relative viability (LCLC-103H; first compound 0.03162 µM): 0.609
relative viability (LCLC-103H; first compound 0.1 µM): 0.574
relative viability (LCLC-103H; first compound 0.3162 µM): 0.629
relative viability (LCLC-103H; first compound 1 µM): 0.514
relative viability (NCI-H1703; first compound 0.01 µM): 0.234
relative viability (NCI-H1703; first compound 0.03162 µM): 0.252
relative viability (NCI-H1703; first compound 0.1 µM): 0.224
relative viability (NCI-H1703; first compound 0.3162 µM): 0.189
relative viability (NCI-H1703; first compound 1 µM): 0.129
relative viability (NCI-H1299; first compound 0.01 µM): 0.98
relative viability (NCI-H1299; first compound 0.03162 µM): 0.882
relative viability (NCI-H1299; first compound 0.1 µM): 0.622
relative viability (NCI-H1299; first compound 0.3162 µM): 0.248
relative viability (NCI-H1299; first compound 1 µM): 0.116
relative viability (A549; first compound 0.01 µM): 0.548
relative viability (A549; first compound 0.03162 µM): 0.587
relative viability (A549; first compound 0.1 µM): 0.641
relative viability (A549; first compound 0.3162 µM): 0.368
relative viability (A549; first compound 1 µM): 0.107
relative viability (IA-LM; first compound 0.01 µM): 0.48
relative viability (IA-LM; first compound 0.03162 µM): 0.456
relative viability (IA-LM; first compound 0.1 µM): 0.538
relative viability (IA-LM; first compound 0.3162 µM): 0.48
relative viability (IA-LM; first compound 1 µM): 0.0832
relative viability (NCI-H520; first compound 0.01 µM): 0.328
relative viability (NCI-H520; first compound 0.03162 µM): 0.28
relative viability (NCI-H520; first compound 0.1 µM): 0.253
relative viability (NCI-H520; first compound 0.3162 µM): 0.216
relative viability (NCI-H520; first compound 1 µM): 0.219

C=C1C(=O)O[C@@H](CCCCCCCC)[C@@H]1C(=O)O [C-75] + Cc1nc(NC(=O)N2CCC[C@H]2C(N)=O)sc1-c1ccnc(C(C)(C)C(F)(F)F)c1 [Alpelisib] (partner 2 µM)
relative viability (Calu-6; first compound 0.08 µM): 1.04
relative viability (Calu-6; first compound 0.253 µM): 0.926
relative viability (Calu-6; first compound 0.8 µM): 0.983
relative viability (Calu-6; first compound 2.53 µM): 0.796
relative viability (Calu-6; first compound 8 µM): 0.932
relative viability (EBC-1; first compound 0.08 µM): 0.904
relative viability (EBC-1; first compound 0.253 µM): 0.763
relative viability (EBC-1; first compound 0.8 µM): 0.792
relative viability (EBC-1; first compound 2.53 µM): 0.7
relative viability (EBC-1; first compound 8 µM): 0.712
relative viability (NCI-H1355; first compound 0.08 µM): 0.815
relative viability (NCI-H1355; first compound 0.253 µM): 0.825
relative viability (NCI-H1355; first compound 0.8 µM): 0.825
relative viability (NCI-H1355; first compound 2.53 µM): 0.835
relative viability (NCI-H1355; first compound 8 µM): 0.886
relative viability (LCLC-103H; first compound 0.08 µM): 0.986
relative viability (LCLC-103H; first compound 0.253 µM): 0.94
relative viability (LCLC-103H; first compound 0.8 µM): 1.01
relative viability (LCLC-103H; first compound 2.53 µM): 0.89
relative viability (LCLC-103H; first compound 8 µM): 0.908
relative viability (NCI-H1703; first compound 0.08 µM): 0.337
relative viability (NCI-H1703; first compound 0.253 µM): 0.348
relative viability (NCI-H1703; first compound 0.8 µM): 0.325
relative viability (NCI-H1703; first compound 2.53 µM): 0.28
relative viability (NCI-H1703; first compound 8 µM): 0.327
relative viability (NCI-H1299; first compound 0.08 µM): 1.04
relative viability (NCI-H1299; first compound 0.253 µM): 0.979
relative viability (NCI-H1299; first compound 0.8 µM): 1.1
relative viability (NCI-H1299; first compound 2.53 µM): 0.966
relative viability (NCI-H1299; first compound 8 µM): 1.07
relative viability (A549; first compound 0.08 µM): 0.828
relative viability (A549; first compound 0.253 µM): 0.909
relative viability (A549; first compound 0.8 µM): 0.824
relative viability (A549; first compound 2.53 µM): 0.579
relative viability (A549; first compound 8 µM): 0.716
relative viability (IA-LM; first compound 0.08 µM): 0.71
relative viability (IA-LM; first compound 0.253 µM): 0.815
relative viability (IA-LM; first compound 0.8 µM): 0.74
relative viability (IA-LM; first compound 2.53 µM): 0.648
relative viability (IA-LM; first compound 8 µM): 0.761
relative viability (NCI-H520; first compound 0.08 µM): 0.836
relative viability (NCI-H520; first compound 0.253 µM): 1.09
relative viability (NCI-H520; first compound 0.8 µM): 1.02
relative viability (NCI-H520; first compound 2.53 µM): 0.996
relative viability (NCI-H520; first compound 8 µM): 1.01
